Source: the NIST ThermoML archive (doi:10.1016/j.fluid.2016.10.027)
± gives the expanded uncertainty stated by the source.

Assays:
[1] = refractive index (Na D-line) (dimensionless); conditions: 101.33 kPa, Liquid, Standard Abbe refractometry
[2] = 101.33 kPa, Liquid, Vibrating tube method

refractive index ([1]; 298.15 K)	refractive index ([1]; 293.15 K)	mass density ([2]; 293.15 K)	mass density ([2]; 298.15 K)	Compound
1.332 ± 0.0005	–	–	–	O [water]
–	1.3876 ± 0.0006	871 ± 2 kg/m3	–	CCC(C)OC(C)=O (configuration not stated) [1-methylpropyl ethanoate]
1.3962 ± 0.0005	–	–	804 ± 2 kg/m3	CCC(C)O (configuration not stated) [butan-2-ol]
1.3703 ± 0.0005	–	–	1044.6 ± 2 kg/m3	CC(=O)O [acetic acid]
